According to PMC8519022, “Diarylethene‐Based Photoswitchable Inhibitors of Serine Proteases” (Angewandte Chemie (International Ed. in English), 2021):
*1 amine or outer side, *2 acyl side, *3 side chain or, on linkers, in order; H or OH if unused. Where a SMILES comes first, the peptide text is derived from it. Bridges are numbered along the chain shown (N, C = ends). Triazole bridges read from a SMILES are 1,4-linked. [ ]: non-standard residue; d: D form. X1 = Cc1sc(C(=O)[C@@H]2CCCN2[*:2])cc1C1=C(c2cc(C(=O)[*:1])sc2C)CCC1; Orn(N3) = [N-]=[N+]=NCCC[C@H](N)C(=O)O; hCys = N[C@@H](CCS)C(=O)O; Pra = C#CC[C@H](N)C(=O)O

Assays:
trypsin = molecular target: T1, trypsin (Bos taurus, UniProt P00760); conditions: for k H [M^−1 s^−1] (closed): pH 8.2
T1 sequence (P00760 24-246): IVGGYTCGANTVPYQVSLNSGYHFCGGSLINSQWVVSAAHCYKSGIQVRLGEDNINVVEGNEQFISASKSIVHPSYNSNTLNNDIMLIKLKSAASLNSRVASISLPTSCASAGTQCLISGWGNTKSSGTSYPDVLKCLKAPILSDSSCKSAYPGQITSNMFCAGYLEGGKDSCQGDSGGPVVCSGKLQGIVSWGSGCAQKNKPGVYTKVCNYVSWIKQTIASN
Experimental: Analysis of the proteolytic stability
Proteolytic stability of the peptides was characterized by determining hydrolysis rates (kH) by the action of trypsin in a 50 mM Tris–
HCl buffer, pH 8.2, supplemented with 25 mM CaCl2 and 0.005% Tween®20 at 22°C. The peptides at a concentration of 50 μM were
mixed with trypsin (0.5 μM) in a 2 mL total volume. At selected time intervals, 70 μL samples of the mixture were taken, quenched
by addition 130 μL 2% aqueous formic acid, and immediately analyzed by analytical HPLC. The kH values were calculated from the
time-dependent data assuming zero-order kinetics (zero-order kinetics applies due to the high substrate/enzyme ratio of 100 to 1).
For the fitting the linear part of the hydrolysis curve was taken excluding the last time point in which the entire peptide inhibitor was
analogues could hydrolyze at two positions: at the Lys (P1 position) of the inhibitory loop and after the stabilizing loop’s arginine
residue (P4 position).[S6] The ultimate product (i.e., cleaved at both positions) had, therefore, a MALDI-TOF-MS detectable mass
The identity of each peak was confirmed by MALDI -TOF-MS. Detection – 220 nm, hydrolysis time is indicated at each chromatogram.

[1] = molecular target: T2, Bos taurus trypsin 1 (T1) (Bos taurus, UniProt P00760); experiment: Trypsin inhibition, Ki by Lineweaver-Burk analysis;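 also: trypsin activity followed by spectrophotometric hydrolysis kinetics of the chromogenic substrate BAPNA in Tris buffer, Ki obtained from double-reciprocal Lineweaver–Burk plots at several substrate concentrations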
T2 sequence (P00760 24-246): T1 sequence (P00760 24-246)
Experimental: Protease inhibition assays
The inhibition of trypsin and α-chymotrypsin was investigated by two methods. First, the inhibition was determined at a fixed enzyme and substrate concentration, whereas the inhibitor concentration varied. By plotting the protease activity against an inhibitor’s concentration, IC50 (the half-maximal inhibitory concentration) was determined.
Lineweaver–Burk analysis (see below), the Ki values for all peptide inhibitors were determined with high accuracy.
All measurements were performed with p-nitroaniline-based chromogenic substrates (λabs = 405 nm) in 96-well microtiter plates using
EpochTM 2 microplate spectrophotometer. For trypsin measurements the Tris buffer (50 mM Tris-HCl, 25 mM CaCl2, 0.005% Tween®
For the measurements, a fresh 0.92 µM trypsin solution was prepared from the storage aliquot and kept on ice.
A stock solution of the substrate BAPNA (Nα-Benzoyl-DL-arginine 4-nitroanilide hydrochloride) at the concentration of 50 mM in
aqueous dimethyl sulfoxide (DMSO) (100 mg of BAPNA in 4.6 mL of DMSO:water mixture 1:1) was pre pared and stored at RT.
peptide solutions at the concentration of 100 µM, which was further diluted to 10, 1, or 0.1 µM if required, were prepared in Milli-Q®
deionized ultrapure water.
For the determination of IC50, a double dilution series of inhibit ors were prepared in a 96 -well plate (12 concentrations, two repeats
for each concentration, 200 µL of Tris buffer in each well). Subsequently, a trypsin solution (20 µL, 150 nM) was added to ea ch well
with the tested peptide and to the control row. Soluti ons in each well were intensely mixed using a multichannel pipette (from lower
concentration to higher). After a pre -incubation period (5 min), the substrate BAPNA was added to each well (20 µL, 25 mM).
solutions were thoroughly mixed with the multicha nnel pipette, and the kinetics of substrate hydrolysis was recorded with an interval
of 1 min between measurements over 20 min. The total volume in each well was 240 µL, final trypsin and BAPNA concentrations
were 12.5 nM and 2.08 mM, respectively. The mea n values of the two repeats of the slope of absorption vs. time curves were
calculated. The activities at different inhibitor concentrations were then calculated by taking the control curves’ slope val ues (no
inhibitor) as the 100% enzyme activity. The inh ibition activity IC 50 against α-chymotrypsin (α-chymotrypsin from bovine pancreas
type II) was measured in the same way except that a different substrate, Ac-EAPF-pNA (Ac-Glu-Ala-Pro-Phe-pNA), was used (20
Inhibitory constants Ki were determined by Lineweaver-Burk (LWB) double-reciprocal analysis according to a published protocol.[S5]
Briefly, a fresh inhibitor/enzyme mixture was prepared in a glass vial and distributed to 2x6 wells (200 µL in each well, enzyme
concentration after dilution 12 nM). An enzyme without an inhibitor was added to the control wells. Aliquots of varying substrate stock
solutions were added with a multichannel pipette to each well. For trypsin inhibition experiments, BAPNA (20 µL per well of 20, 22.7,
26, 29.8, 34, 40 mM) and for α-chymotrypsin Ac-EAPF-pNA (20 µL per well of 16, 12.48, 10, 8, 6.4, 5.44 mM) were used, respectively.
Well contents were thoroughly mixed using a multichannel pipette, and a plate reader was used to monitor the hydrolysis kinetics
(sampling interval of 1 min over 20 min).

Compound | k H (closed) /k H (open) (trypsin) | k H [M^−1 s^−1] (closed) (trypsin) | Ki ([1]; K i [nM] (closed)) | Ki ([1]; K i [nM] (open))
CC[C@H](C)[C@@H]1NC(=O)[C@@H]2CCCN2C(=O)[C@@H]2CCCN2C(=O)[C@H]([C@@H](C)CC)NC(=O)[C@H](CO)NC(=O)[C@H](CCCCN)NC(=O)[C@H]([C@@H](C)O)NC(=O)[C@@H]2Cc3cn(nn3)CCC[C@H](NC1=O)C(=O)N[C@@H](CCCNC(=N)N)C(=O)N1CCC[C@H]1C(=O)c1cc(c(C)s1)C1=C(CCC1)c1cc(sc1C)C(=O)N[C@@H](Cc1ccccc1)C(=O)N2 [Peptide S7i] (F[Pra]TKSIPPI[Orn(N3)]R; triazole 2-10; linker N-C via X1) | 73 | 5.5±1×10^−1 M^−1 s^−1 | 7220 ± 360 nM | 263 ± 30 nM
CC[C@H](C)[C@@H]1NC(=O)[C@@H]2CCCN2C(=O)[C@@H]2CCCN2C(=O)[C@H]([C@@H](C)CC)NC(=O)[C@H](CO)NC(=O)[C@H](CCCCN)NC(=O)[C@H]([C@@H](C)O)NC(=O)c2cc(c(C)s2)C2=C(CCC2)c2cc(sc2C)C(=O)[C@@H]2CCCN2C1=O [Peptide S4] (TKSIPPI; linker N-C via X1) |  |  |  | 22 ± 3 nM
CC[C@H](C)[C@@H]1NC(=O)[C@@H]2CCCN2C(=O)[C@@H]2CCCN2C(=O)[C@H]([C@@H](C)CC)NC(=O)[C@H](CO)NC(=O)[C@H](CCCCN)NC(=O)[C@H]([C@@H](C)O)NC(=O)[C@@H]2Cc3cn(nn3)CCC[C@H](NC1=O)C(=O)N[C@@H](CCCNC(=N)N)C(=O)N[C@@H](CC(C)C)C(=O)N1CCC[C@H]1C(=O)c1cc(c(C)s1)C1=C(CCC1)c1cc(sc1C)C(=O)N[C@@H](C(C)C)C(=O)N[C@@H](Cc1ccccc1)C(=O)N2 [Peptide S12i] (VF[Pra]TKSIPPI[Orn(N3)]RL; triazole 3-11; linker N-C via X1) | 3.0 | 4.2±0.4×10^−2 M^−1 s^−1 |  | 2440 ± 215 nM
CC[C@H](C)[C@@H]1NC(=O)[C@@H]2CCCN2C(=O)[C@@H]2CCCN2C(=O)[C@H]([C@@H](C)CC)NC(=O)[C@H](CO)NC(=O)[C@H](CCCCN)NC(=O)[C@H]([C@@H](C)O)NC(=O)[C@@H]2CSSCC[C@H](NC1=O)C(=O)N[C@@H](CCCNC(=N)N)C(=O)N1CCC[C@H]1C(=O)c1cc(c(C)s1)C1=C(CCC1)c1cc(sc1C)C(=O)N[C@@H](Cc1ccccc1)C(=O)N2 [Peptide S5i] (FCTKSIPPI[hCys]R; disulfide 2-10; linker N-C via X1) | 1.7 | 5.0±0.8×10^−3 M^−1 s^−1 | 182 ± 16 nM | 102 ± 14 nM
CC[C@H](C)[C@@H]1NC(=O)[C@@H]2CCCN2C(=O)[C@@H]2CCCN2C(=O)[C@H]([C@@H](C)CC)NC(=O)[C@H](CO)NC(=O)[C@H](CCCCN)NC(=O)[C@H]([C@@H](C)O)NC(=O)[C@@H]2CSSC[C@H](NC1=O)C(=O)N[C@@H](Cc1ccccc1)C(=O)N1CCC[C@H]1C(=O)c1cc(c(C)s1)C1=C(CCC1)c1cc(sc1C)C(=O)N[C@@H](C(C)C)C(=O)N[C@@H](CCCNC(=N)N)C(=O)N2 [Peptide S8n] (VRCTKSIPPICF; disulfide 3-11; linker N-C via X1) | 4.1 | 5.3±1.4×10^−4 M^−1 s^−1 | 125 ± 8 nM | 5.2 ± 0.4 nM
CC[C@H](C)[C@@H]1NC(=O)[C@@H]2CCCN2C(=O)[C@@H]2CCCN2C(=O)[C@H]([C@@H](C)CC)NC(=O)[C@H](CO)NC(=O)[C@H](CCCCN)NC(=O)[C@H]([C@@H](C)O)NC(=O)[C@H](C)NC(=O)c2cc(c(C)s2)C2=C(CCC2)c2cc(sc2C)C(=O)[C@@H]2CCCN2C(=O)[C@H](C)NC1=O [Peptide S3] (ATKSIPPIA; linker N-C via X1) |  |  |  | 101 ± 9 nM
CC[C@H](C)[C@@H]1NC(=O)[C@@H]2CCCN2C(=O)[C@@H]2CCCN2C(=O)[C@H]([C@@H](C)CC)NC(=O)[C@H](CO)NC(=O)[C@H](CCCCN)NC(=O)[C@H]([C@@H](C)O)NC(=O)[C@@H]2CSSC[C@H](NC1=O)C(=O)N[C@@H](Cc1ccccc1)C(=O)N1CCC[C@H]1C(=O)c1cc(c(C)s1)C1=C(CCC1)c1cc(sc1C)C(=O)N[C@@H](CCCNC(=N)N)C(=O)N2 [Peptide S1n] (RCTKSIPPICF; disulfide 2-10; linker N-C via X1) |  |  |  | 4.9 ± 0.3 nM
CC[C@H](C)[C@@H]1NC(=O)[C@@H]2CCCN2C(=O)[C@@H]2CCCN2C(=O)[C@H]([C@@H](C)CC)NC(=O)[C@H](CO)NC(=O)[C@H](CCCCN)NC(=O)[C@H]([C@@H](C)O)NC(=O)[C@@H]2Cc3cn(nn3)CCC[C@H](NC1=O)C(=O)N[C@@H](Cc1ccccc1)C(=O)N1CCC[C@H]1C(=O)c1cc(c(C)s1)C1=C(CCC1)c1cc(sc1C)C(=O)N[C@@H](CCCNC(=N)N)C(=O)N2 [Peptide S7n] (R[Pra]TKSIPPI[Orn(N3)]F; triazole 2-10; linker N-C via X1) | 30.5 | 6.1±1.2×10^−2 M^−1 s^−1 | 2200 ± 214 nM | 63.4 ± 4.4 nM
CC[C@H](C)[C@@H]1NC(=O)[C@@H]2CCCN2C(=O)[C@@H]2CCCN2C(=O)[C@H]([C@@H](C)CC)NC(=O)[C@H](CO)NC(=O)[C@H](CCCCN)NC(=O)[C@H]([C@@H](C)O)NC(=O)[C@@H]2CSSC[C@H](NC1=O)C(=O)N[C@@H](Cc1ccccc1)C(=O)N[C@@H](CC(C)C)C(=O)N1CCC[C@H]1C(=O)c1cc(c(C)s1)C1=C(CCC1)c1cc(sc1C)C(=O)N[C@@H](CCCNC(=N)N)C(=O)N2 [Peptide S9n] (RCTKSIPPICFL; disulfide 2-10; linker N-C via X1) | 8.7 | 1.3±0.1×10^−3 M^−1 s^−1 | 55 ± 3.8 nM | 8.3 ± 0.6 nM
CC[C@H](C)[C@@H]1NC(=O)[C@@H]2CCCN2C(=O)[C@@H]2CCCN2C(=O)[C@H]([C@@H](C)CC)NC(=O)[C@H](CO)NC(=O)[C@H](CCCCN)NC(=O)[C@H]([C@@H](C)O)NC(=O)[C@@H]2CSSC[C@H](NC1=O)C(=O)N[C@@H](CCCNC(=N)N)C(=O)N1CCC[C@H]1C(=O)c1cc(c(C)s1)C1=C(CCC1)c1cc(sc1C)C(=O)N[C@@H](Cc1ccccc1)C(=O)N2 [Peptide S1i] (FCTKSIPPICR; disulfide 2-10; linker N-C via X1) |  |  |  | 13.4 ± 1.4 nM
CC[C@H](C)[C@@H]1NC(=O)[C@@H]2CCCN2C(=O)[C@@H]2CCCN2C(=O)[C@H]([C@@H](C)CC)NC(=O)[C@H](CO)NC(=O)[C@H](CCCCN)NC(=O)[C@H]([C@@H](C)O)NC(=O)[C@@H]2CSSCC[C@H](NC1=O)C(=O)N[C@@H](Cc1ccccc1)C(=O)N1CCC[C@H]1C(=O)c1cc(c(C)s1)C1=C(CCC1)c1cc(sc1C)C(=O)N[C@@H](CCCNC(=N)N)C(=O)N2 [Peptide S5n] (RCTKSIPPI[hCys]F; disulfide 2-10; linker N-C via X1) | 13.6 | 3.4±0.5×10^−2 M^−1 s^−1 | 231 ± 14 nM | 95 ± 6 nM
